The record followed here is ChEMBL document CHEMBL1152560, “Substituted 2-arylbenzothiazoles as kinase inhibitors: hit-to-lead optimization” (Bioorg Med Chem, 2009).

The target of test [1] is Receptor tyrosine-protein kinase erbB-4 (Homo sapiens) (UniProt Q15303). The test is described as follows: Residual activity of ERBB4 at 1 uM by microplate scintillation counting.
For test [2], the target named is Tyrosine-protein kinase SYK (Homo sapiens) (UniProt P43405). The test can be described thus: Residual activity of SYK at 10 uM by microplate scintillation counting.
Test [3] has as its target T1, Cytoplasmic tyrosine-protein kinase BMX (Homo sapiens) (UniProt P51813).
T1 sequence (whole entry): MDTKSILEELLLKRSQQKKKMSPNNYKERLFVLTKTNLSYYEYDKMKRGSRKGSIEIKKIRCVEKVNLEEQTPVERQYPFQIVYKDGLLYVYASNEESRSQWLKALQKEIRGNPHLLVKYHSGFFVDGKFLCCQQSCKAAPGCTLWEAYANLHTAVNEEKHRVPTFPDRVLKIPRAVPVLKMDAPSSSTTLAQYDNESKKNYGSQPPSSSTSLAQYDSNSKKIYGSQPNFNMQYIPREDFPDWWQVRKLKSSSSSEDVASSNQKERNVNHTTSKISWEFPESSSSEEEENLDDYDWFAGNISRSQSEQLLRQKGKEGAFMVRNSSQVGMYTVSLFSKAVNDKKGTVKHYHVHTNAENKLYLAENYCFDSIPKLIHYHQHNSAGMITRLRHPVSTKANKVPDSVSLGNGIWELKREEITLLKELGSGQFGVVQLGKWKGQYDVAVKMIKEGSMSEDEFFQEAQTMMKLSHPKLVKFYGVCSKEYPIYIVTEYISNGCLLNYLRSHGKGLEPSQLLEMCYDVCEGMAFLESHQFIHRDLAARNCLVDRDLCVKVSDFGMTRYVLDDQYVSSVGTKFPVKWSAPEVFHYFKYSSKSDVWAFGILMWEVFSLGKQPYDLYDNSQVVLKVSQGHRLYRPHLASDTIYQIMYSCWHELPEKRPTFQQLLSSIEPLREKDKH
The test can be described thus: Residual activity of BMX at 10 uM by microplate scintillation counting.

Test [4] concerns the target Mitogen-activated protein kinase 11 (Homo sapiens) (UniProt Q15759). The test is described as follows: Residual activity of p38beta at 10 uM by microplate scintillation counting.
The target in test [5] is T2, Tyrosine-protein kinase Mer (Homo sapiens) (UniProt Q12866).
T2 sequence (whole entry): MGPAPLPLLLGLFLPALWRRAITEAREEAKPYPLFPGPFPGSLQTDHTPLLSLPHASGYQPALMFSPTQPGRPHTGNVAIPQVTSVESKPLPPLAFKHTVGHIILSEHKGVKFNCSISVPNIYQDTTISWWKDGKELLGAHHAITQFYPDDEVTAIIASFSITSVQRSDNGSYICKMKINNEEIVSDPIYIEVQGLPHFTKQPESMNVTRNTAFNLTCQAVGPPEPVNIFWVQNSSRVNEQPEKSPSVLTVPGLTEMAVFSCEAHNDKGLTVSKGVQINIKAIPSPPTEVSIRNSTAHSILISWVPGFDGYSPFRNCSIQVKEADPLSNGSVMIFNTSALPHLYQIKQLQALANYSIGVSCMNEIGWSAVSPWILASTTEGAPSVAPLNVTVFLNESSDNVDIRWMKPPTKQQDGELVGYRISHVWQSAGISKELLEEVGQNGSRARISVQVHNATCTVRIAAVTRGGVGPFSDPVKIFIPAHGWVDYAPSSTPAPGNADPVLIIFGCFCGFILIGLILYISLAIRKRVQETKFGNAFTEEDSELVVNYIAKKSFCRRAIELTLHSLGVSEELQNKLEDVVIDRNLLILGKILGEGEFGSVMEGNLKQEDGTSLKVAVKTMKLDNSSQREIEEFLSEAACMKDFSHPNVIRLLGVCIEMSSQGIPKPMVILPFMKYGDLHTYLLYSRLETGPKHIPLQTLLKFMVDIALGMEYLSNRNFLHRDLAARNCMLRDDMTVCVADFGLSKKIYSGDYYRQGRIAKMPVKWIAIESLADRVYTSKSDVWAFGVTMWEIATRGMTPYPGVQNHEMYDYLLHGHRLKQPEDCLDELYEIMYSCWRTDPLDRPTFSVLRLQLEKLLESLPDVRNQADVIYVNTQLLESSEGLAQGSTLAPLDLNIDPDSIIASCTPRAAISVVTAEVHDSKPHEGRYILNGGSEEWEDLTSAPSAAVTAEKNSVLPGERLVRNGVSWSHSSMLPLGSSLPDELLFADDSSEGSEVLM
The test is described as follows: Residual activity of MERTK at 0.1 uM by microplate scintillation counting.

In test [6] the target is T3, Ephrin type-A receptor 8 (Homo sapiens) (UniProt P29322).
T3 sequence (whole entry): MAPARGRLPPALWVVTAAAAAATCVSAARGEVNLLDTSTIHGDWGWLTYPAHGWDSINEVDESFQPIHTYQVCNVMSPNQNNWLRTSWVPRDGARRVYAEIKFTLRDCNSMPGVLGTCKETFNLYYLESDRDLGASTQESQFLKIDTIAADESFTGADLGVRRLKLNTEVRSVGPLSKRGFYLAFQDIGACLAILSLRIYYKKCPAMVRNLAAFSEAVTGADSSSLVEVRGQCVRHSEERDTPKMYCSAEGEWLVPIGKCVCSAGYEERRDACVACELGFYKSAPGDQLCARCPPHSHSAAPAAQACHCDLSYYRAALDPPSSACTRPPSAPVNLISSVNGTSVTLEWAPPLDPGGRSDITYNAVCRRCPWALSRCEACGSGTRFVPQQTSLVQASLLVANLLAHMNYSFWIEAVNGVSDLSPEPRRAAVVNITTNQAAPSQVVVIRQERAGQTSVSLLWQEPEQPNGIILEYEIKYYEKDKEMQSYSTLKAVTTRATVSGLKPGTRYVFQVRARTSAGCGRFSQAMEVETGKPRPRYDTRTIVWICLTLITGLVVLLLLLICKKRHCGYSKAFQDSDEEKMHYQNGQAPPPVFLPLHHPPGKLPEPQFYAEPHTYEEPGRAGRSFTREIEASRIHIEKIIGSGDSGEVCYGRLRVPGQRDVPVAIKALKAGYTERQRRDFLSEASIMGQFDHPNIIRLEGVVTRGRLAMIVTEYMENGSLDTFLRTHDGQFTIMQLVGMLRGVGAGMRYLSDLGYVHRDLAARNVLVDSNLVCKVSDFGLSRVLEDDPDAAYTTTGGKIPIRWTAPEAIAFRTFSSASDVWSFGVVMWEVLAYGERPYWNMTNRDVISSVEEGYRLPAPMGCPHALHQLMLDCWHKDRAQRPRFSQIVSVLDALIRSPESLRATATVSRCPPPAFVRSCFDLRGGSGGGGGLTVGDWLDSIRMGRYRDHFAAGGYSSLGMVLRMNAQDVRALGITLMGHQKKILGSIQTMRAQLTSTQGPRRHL
The test is described as follows: Residual activity of EPHA8 at 10 uM by microplate scintillation counting.

In test [7] the test system is RAF proto-oncogene serine/threonine-protein kinase (Homo sapiens), P04049 [Y340D,Y341D]. The test is described as follows: Residual activity of RAF1 Y340D/Y341D mutant at 1 uM by microplate scintillation counting.
Test [8] addresses Vascular endothelial growth factor receptor 2 (Homo sapiens, UniProt P35968). The test can be described thus: Residual activity of VEGFR2 at 10 uM by microplate scintillation counting.

Chain of Vascular endothelial growth factor receptor 2 (P35968 whole entry): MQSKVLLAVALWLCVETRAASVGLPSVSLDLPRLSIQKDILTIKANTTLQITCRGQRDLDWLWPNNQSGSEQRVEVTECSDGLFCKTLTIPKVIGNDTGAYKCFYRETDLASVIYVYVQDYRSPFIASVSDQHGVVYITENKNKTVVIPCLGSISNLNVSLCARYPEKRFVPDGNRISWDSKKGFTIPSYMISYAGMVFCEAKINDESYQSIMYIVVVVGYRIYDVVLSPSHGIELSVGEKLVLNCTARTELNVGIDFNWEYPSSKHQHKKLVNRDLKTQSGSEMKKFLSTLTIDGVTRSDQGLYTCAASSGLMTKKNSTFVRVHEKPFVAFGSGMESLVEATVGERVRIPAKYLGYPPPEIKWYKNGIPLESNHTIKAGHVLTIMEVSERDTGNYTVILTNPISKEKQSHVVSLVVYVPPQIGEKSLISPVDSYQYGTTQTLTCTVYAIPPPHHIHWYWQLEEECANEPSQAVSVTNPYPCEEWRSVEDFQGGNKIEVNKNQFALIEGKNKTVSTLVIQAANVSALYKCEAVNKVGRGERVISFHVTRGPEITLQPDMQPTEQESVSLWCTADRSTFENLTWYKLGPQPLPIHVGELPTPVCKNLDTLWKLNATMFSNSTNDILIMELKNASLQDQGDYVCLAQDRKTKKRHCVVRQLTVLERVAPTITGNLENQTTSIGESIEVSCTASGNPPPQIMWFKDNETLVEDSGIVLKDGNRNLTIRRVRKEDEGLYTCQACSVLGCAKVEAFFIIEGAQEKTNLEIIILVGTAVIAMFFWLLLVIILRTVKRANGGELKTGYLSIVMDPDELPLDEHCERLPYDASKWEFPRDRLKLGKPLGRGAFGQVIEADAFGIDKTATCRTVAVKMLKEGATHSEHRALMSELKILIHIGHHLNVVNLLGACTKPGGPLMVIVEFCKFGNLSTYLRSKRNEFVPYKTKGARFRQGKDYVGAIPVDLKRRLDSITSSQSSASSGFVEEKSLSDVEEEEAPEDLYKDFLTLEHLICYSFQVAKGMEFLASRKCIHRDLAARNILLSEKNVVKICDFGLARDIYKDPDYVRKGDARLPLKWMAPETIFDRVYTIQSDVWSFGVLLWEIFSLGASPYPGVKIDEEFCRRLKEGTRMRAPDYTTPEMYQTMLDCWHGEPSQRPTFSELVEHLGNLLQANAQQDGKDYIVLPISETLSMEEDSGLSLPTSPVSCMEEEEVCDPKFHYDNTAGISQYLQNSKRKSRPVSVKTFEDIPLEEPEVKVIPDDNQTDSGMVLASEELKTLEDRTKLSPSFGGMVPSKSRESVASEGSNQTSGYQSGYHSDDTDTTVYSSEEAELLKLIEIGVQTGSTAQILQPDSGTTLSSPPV
Chain of Mitogen-activated protein kinase 11 (Homo sapiens) (Q15759 whole entry): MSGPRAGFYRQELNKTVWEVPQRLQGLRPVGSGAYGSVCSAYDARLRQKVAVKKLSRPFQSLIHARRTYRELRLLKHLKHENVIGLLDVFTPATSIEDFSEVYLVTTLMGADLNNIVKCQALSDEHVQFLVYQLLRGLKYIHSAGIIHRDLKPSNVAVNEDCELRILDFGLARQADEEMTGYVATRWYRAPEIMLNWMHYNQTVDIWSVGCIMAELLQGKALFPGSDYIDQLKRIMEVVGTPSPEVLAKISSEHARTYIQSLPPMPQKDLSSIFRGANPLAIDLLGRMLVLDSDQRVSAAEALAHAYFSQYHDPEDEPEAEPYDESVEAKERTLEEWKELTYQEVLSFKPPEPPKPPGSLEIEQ
Chain of Receptor tyrosine-protein kinase erbB-4 (Homo sapiens) (Q15303 whole entry): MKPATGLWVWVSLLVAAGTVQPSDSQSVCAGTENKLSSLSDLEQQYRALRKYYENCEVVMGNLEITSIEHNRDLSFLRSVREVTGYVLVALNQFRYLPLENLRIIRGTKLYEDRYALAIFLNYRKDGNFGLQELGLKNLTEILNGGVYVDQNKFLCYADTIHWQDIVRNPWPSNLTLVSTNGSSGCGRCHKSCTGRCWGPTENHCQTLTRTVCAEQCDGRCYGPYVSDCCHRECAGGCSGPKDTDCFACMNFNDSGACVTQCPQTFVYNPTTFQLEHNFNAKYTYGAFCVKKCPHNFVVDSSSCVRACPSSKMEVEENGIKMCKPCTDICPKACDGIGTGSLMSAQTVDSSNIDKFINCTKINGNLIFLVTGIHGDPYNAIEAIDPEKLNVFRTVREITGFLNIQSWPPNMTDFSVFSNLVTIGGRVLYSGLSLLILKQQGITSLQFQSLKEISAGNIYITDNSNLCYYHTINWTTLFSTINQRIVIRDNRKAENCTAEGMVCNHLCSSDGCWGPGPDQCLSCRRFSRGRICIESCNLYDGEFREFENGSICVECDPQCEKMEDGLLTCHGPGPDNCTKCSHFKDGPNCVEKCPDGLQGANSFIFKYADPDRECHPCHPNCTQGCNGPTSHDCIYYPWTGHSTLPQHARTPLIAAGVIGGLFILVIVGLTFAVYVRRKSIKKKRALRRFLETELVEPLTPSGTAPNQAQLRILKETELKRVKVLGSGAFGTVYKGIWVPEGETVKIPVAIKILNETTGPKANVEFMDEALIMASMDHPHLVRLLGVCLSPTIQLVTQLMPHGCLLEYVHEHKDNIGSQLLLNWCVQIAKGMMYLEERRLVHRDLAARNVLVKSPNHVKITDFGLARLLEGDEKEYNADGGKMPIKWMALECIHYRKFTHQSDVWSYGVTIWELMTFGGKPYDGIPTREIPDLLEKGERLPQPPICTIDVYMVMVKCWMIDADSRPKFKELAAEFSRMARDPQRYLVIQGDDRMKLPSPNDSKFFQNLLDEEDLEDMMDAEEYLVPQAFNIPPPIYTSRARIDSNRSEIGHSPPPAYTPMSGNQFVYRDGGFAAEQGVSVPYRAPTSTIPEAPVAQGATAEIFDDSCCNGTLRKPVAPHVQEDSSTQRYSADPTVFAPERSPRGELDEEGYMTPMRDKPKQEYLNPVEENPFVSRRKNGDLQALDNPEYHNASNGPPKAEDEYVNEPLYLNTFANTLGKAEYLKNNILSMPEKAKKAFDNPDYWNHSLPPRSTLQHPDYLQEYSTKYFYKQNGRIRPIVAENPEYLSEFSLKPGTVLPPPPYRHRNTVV

On to `COc1cc2c(Oc3ccc(-c4nc5ccccc5s4)cc3F)ncnc2cc1OCCCN1CCN(C)CC1`, for which the residual activity in test [1] was 103%; in test [2], 63%; in test [3] it was 44%; in test [4], 337%; in test [5], 68%; in test [6], 114%. In addition, the residual activity is 104% in test [7] and 5% in test [8].

In the case of `COc1cc2c(Oc3ccc(-c4nc5ccccc5s4)cc3)ncnc2cc1OCCCN1CCN(C)CC1`, the residual activity in test [1] turned out to be 99%; in test [2] it was 146%; in test [3], 156%; in test [4] it was 350%; in test [5], 75%; in test [6] it was 273%. In addition, the residual activity is 97% in test [7] and 6% in test [8].

Regarding `COc1cc2c(Oc3ccc(-c4nc5ccccc5s4)cc3)ncnc2cc1OCCCN1CCCC1`, the residual activity in test [1] was 109%; in test [2], 162%; in test [3], 138%; in test [4], 337%; in test [5], 57%; in test [6] it was 185%. The figures for the residual activity in test [7] and in test [8] were 90% and 5%, respectively.
